Where a SMILES comes first, the peptide text is derived from it.
Test system: A431 human skin squamous cell carcinoma cells
Assay: In vitro cellular uptake quantified by flow cytometry
Type: cell-based
Conditions: all concentrations (0.2–25 μM), 90 min, ratio of Cf-positive cells and mean fluorescence intensity

N=C(N)NCCC[C@H](NC(=O)[C@@H]1CCCN1C(=O)[C@H](CCC(N)=O)NC(=O)[C@H](CCCCN)NC(=O)[C@H](CC(=O)O)NC(=O)[C@@H]1CCCN1C(=O)[C@H](Cc1ccccc1)NC(=O)CNC(=O)[C@H](CCC(=O)O)NC(=O)[C@H](Cc1ccccc1)NC(=O)[C@@H](N)Cc1ccccc1)C(=O)N[C@@H](CCCCN)C(=O)N[C@@H](CCCCN)C(N)=O [Peptide S100] (H-FFEGFPDKQPRKK-NH2)
cellular uptake rate, comparison between peptides: lowest cellular uptake rate
